Test system: human leptin
Experiment: Mouse subcutaneous injection of modified synthetic leptin mRNA, human leptin ELISA
Format: in vivo
Conditions: human leptin in mouse plasma, 10 μg leptin mRNA
Protocol: Prior to subcutaneous injection, mouse body weights were recorded and diet weighted, with mice grouped according to their body weights. The mice were manually restrained and placed on a work surface. Their scruffs were pinched and lifted away from the underlying muscle, the space into which was inserted a 25 gauge needle connected with a 1 ml syringe. The syringe plunger was pulled backwards in such a way as to ensure no fluid was drawn into the syringe, and then the desired volume of leptin mRNA was hand injected with moderate pressure and speed. The needle was then withdrawn and the mice returned to their cages.
8-9 week old, male C57BL/6 mice were used for the in vivo study. FPLC purified modified synthetic leptin mRNA (SEQ ID NO: 5) in which the uridines were substituted with pseudouridine (N:P molar ratio=8:1) packaged in multiple cationic lipid were diluted in injectable saline at a dose of 10 μg per average group body weight.
On day 0, animals were weighed and sorted according to average body weight. ice were dosed at 9 AM and blood was taken at 9 AM on day 0. Blood was also taken at 9 AM on each of days 1 and 2 and assessed for leptin protein levels. Body weight and food intake were also recorded.
Human leptin in mouse plasma was measured by ELISA. Antibodies purchased from the R&D Systems duoset (Cat# DY398E, part#840279 for capture antibody and part#840280 for detection antibody) were reconstituted using PBS and titered, again using PBS. The capture antibody was coated at 4 ug/ml in 30 ul/well on a white Nunc® Maxisorp 384 well plate (Cat#460372). After an overnight incubation at room temperature the capture antibody was aspirated and the plate blocked for 2 hours at room temperature with 90 ul/well of KPL milk blocker (Cat#50-82-00). Once the incubation was completed the plate was aspirated and recombinant standards and samples were added to the plate at 30 ul/well for 2 hours at 37° C. while shaking at 600 rpm. Sample/standard dilutions were made using casein sample diluent. Washing/aspiration 3 times with 100 ul/well followed, using Teknova plate wash solution (Cat# P1192). Next, detection antibody was diluted using casein detection antibody diluent to 12.5 ng/ml and added at 30 ul/well for 2 hours room temperature. After this incubation, the plate was washed again and a solution of poly-streptavidin-HRP (Cat#21140) at a 1:1250 dilution in HRP dilution buffer was added to each well (30 ul/well) and incubated for 30 minutes room temperature. A final wash/aspiration removed the HRP solution and a chemiluminescent substrate was added at 30 ul/well (Cat#1859678 & 1859679). The plate was quickly read using a SpectramaxM5 plate reader with a 50 ms integration time. The dynamic range of the ELISA is from 100-2,000 pg/ml (6.25-125 pM) of human leptin. The assay is applicable to plasma from mice, rats and cynomolgus monkeys.

CCCCC/C=C\C/C=C\CCCCCCCC(=O)OCCCCOc1cc(CN(C)C)cc(OCCCCOC(=O)CCCCCCC/C=C\C/C=C\CCCCC)c1 [Example 38, (9Z,9′Z,12Z,12′Z)-((5-((dimethylamino)methyl)-1,3-phenylene)bis(oxy))bis(butane-4,1-diyl)bis(octadeca-9,12-dienoate)]
Leptin expression SC-C57BI/6, 24 h: 0.99 ng/mL
